Laboratory results from PubChem BioAssay (NCI).
Several values for one entry are separate records, joined by “and”; a condition that tells them apart may be missing. Equal values may be shown once.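 Results reflect a 48-hour exposure of cells in 96-well plates to compound at five concentrations. GI50 = concentration required for 50% inhibition of growth. TGI denotes the concentration required for complete inhibition of growth.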

Tests used:
Test in all cases: NCI-60 cell line screen, 48 h
[1] = test system: OVCAR-3 ovarian
[2] = test system: NCI-H226 lung
[3] = test system: ACHN renal
[4] = test system: SW-620 colon
[5] = test system: SF-268 CNS
[6] = test system: MOLT-4 leukemia
[7] = test system: A549 NSCLC
[8] = test system: NCI-H522 lung
[9] = test system: HOP-92 NSCLC
[10] = test system: HOP-62 NSCLC

| Compound | GI50 [1] | TGI [1] [µM] | GI50 [2] [µM] | TGI [2] [µM] | GI50 [3] [µM] | TGI [3] [µM] | GI50 [4] | TGI [4] | GI50 [5] | TGI [5] [µM] | GI50 [6] [µM] | TGI [6] [µM] | GI50 [7] | TGI [7] [µM] | GI50 [8] | GI50 [9] | TGI [9] | GI50 [10] | TGI [10] [µM] | TGI [8] [µM] |
| --- | --- | --- | --- | --- | --- | --- | --- | --- | --- | --- | --- | --- | --- | --- | --- | --- | --- | --- | --- | --- |
| Cc1nc2sc(C(=O)Nc3cccc(Cl)c3C)c(N)c2cc1C(=O)c1ccccc1 | 0.176 µM | 1.37 | 1.28 | > 50 | 0.344 | > 50 | 0.209 µM | > 50 µM | 0.375 µM | > 50 | 0.254 | > 50 | 0.245 µM | > 50 | 0.205 µM | 0.259 µM | > 23.7 µM | 0.296 µM | > 50 |  |
| Cc1ccc(C)c(N2C(=O)C(=O)c3c(C)ccc(C)c32)c1 |  | 34.1 |  | > 100 |  | 33.4 |  | > 100 µM |  | 78.2 |  | 48.8 |  | > 100 |  |  | 96.8 µM |  | > 100 | 38.6 |
| NCC(=O)NC(CO)C(=O)O (centres undefined) |  | > 100 |  | > 100 |  | > 100 |  | > 100 µM |  | > 100 |  | > 100 |  | > 100 |  |  | > 100 µM |  | > 100 | > 100 |
| CC#CC(=O)N[C@H]1CCCN(c2c(F)cc(C(N)=O)c3[nH]c(C)c(C)c23)C1 | 21.9 µM | 63.7 | 21.1 | 51.6 | 16.4 | 42.8 | 19.8 µM | 39 µM | 17.4 µM | 45.1 | 18.8 | 93.6 | 21.3 µM | 70.2 | 14.4 µM | 15.6 µM | 64.7 µM | 24.9 µM | > 100 | 34.1 |
| COc1cc(/C=N/Nc2ncnc3c2cnn3Cc2ccccc2)ccc1O | 6.8 µM | > 19.7 | 10.3 | > 25 | 4.13 | > 25 | > 25 µM | > 25 µM | 5.34 µM | 14.3 | > 25 | > 25 | 8.69 µM | > 23.9 | 5.37 µM | 0.83 µM | 8.86 µM | 5.24 µM | 11.8 | > 22.8 |
| CCCN(CCC)c1ccc(/C=N/NC(=O)c2cccnc2)cc1 | 20.1 µM | 45.3 | 47.6 | > 100 | 39.5 | > 100 | 18.1 µM | > 100 µM | 31.2 µM | > 100 | 31 | > 100 | 27.5 µM | > 100 | 16.6 µM | 20.3 µM | 64.8 µM | 37.9 µM | > 100 | 46.8 |
| COc1cc([N+](=O)[O-])c(OC)cc1-c1nc2n(c1/C(N)=N/C(=N)N)CCS2 | 33.5 µM | > 100 | > 100 | > 100 | 12.3 | > 100 | > 100 µM | > 100 µM | 45.8 µM | > 100 | > 100 | > 100 | 59.3 µM | > 100 | 47.7 µM | 41.9 µM | > 100 µM | 6.23 µM | 50.6 | > 100 |
| CCCCC/C=C\C/C=C/CCCCCCCCNC(=O)Nc1ccc([N+](=O)[O-])cc1 | 6.74 µM | > 100 | 14.8 | > 100 | 6.8 | > 100 | 5.51 µM | > 100 µM | 38 µM | > 100 | 5.68 | 41.4 | 38.2 µM | > 100 | 11.5 µM | 4.27 µM | 35.4 µM | 40.8 µM | > 100 | > 100 |
| C/C=C/C=C\C(=O)C1c2cccc(O)c2C(=O)c2c(O)cc(C)cc21 (centres undefined) |  | 2.2 |  | 2.57 |  | 2.66 |  | 2.55 µM |  | 2.05 |  | 8.19 |  | 2.13 |  |  | 3.33 µM |  | 4.27 | 3.06 |
| COc1cc(C(=O)Nc2cc(O)c(C/C=C(\C)CCC=C(C)C)c(O)c2)cc2c1O[C@]1(C)CC[C@@H](O)C(C)(C)[C@H]1C2 | 3.17 µM and 1.76 µM | 6.12 | 3.47 | 29 | 1.22 | 13.1 | 0.0899 µM and 0.159 µM | 1.84 µM and 15.6 µM | 1.1 µM and 0.741 µM | 15.8 | 0.0298 | 1.54 | 0.381 µM and 0.214 µM | 13.9 | 7 µM and 1.29 µM | 0.237 µM and 0.173 µM | 8.13 µM and 4.79 µM | 0.0537 µM and 0.176 µM | 6.97 | 11.6 |
